Reference: ChEMBL document CHEMBL5236598, “Lead Optimization and Avoidance of Metabolic-perturbing Motif Developing Novel Diarylpyrimidines as Potent HIV-1 NNRTIs” (J Med Chem, 2022)

Experiments:
[1] = Subacute toxicity in Kunming mouse assessed as anorexia at 50 mg/kg/day, po administered for 2 weeks; type: organism-based; settings: in vivo, 336 h
[2] = Subacute toxicity in Kunming mouse assessed as signs of toxicity at 50 mg/kg/day, po administered for 2 weeks; type: organism-based; settings: in vivo, 336 h
[3] = Metabolic stability in human liver microsomes assessed as half life preincubated for 10 mins followed by NADPH regenerating system addition and measured after 2 hrs by LC-MS/MS analysis; type: ADME, Microsome; settings: time 130 min
[4] = Oral bioavailability in ICR mouse at 10 mg/kg measured for 12 hrs by LC-MS/MS analysis; type: ADME, organism-based; settings: in vivo
[5] = Subacute toxicity in Kunming mouse assessed as appearance of lesions in kidneys at 50 mg/kg/day, po administered for 2 weeks; type: organism-based; settings: in vivo, 336 h
[6] = Subacute toxicity in Kunming mouse assessed as abnormalities in lungs at 50 mg/kg/day, po administered for 2 weeks; type: organism-based; settings: in vivo, 336 h
[7] = Cmax in ICR mouse at 2 mg/kg, iv measured for 12 hrs by LC-MS/MS analysis; type: ADME, organism-based; design: time 12 hrs, dose 2 mg/kg, route iv; settings: in vivo
[8] = Acute toxicity in Kunming mouse assessed as change in body weight at 2000 mg/kg, po administered for 7 days; type: organism-based; settings: in vivo, 168 h, time 7 day
[9] = AUC (0 to t) in ICR mouse at 10 mg/kg, po measured for 12 hrs by LC-MS/MS analysis; type: ADME, organism-based; design: dose 10 mg/kg, time 12 hrs, route po; settings: in vivo
[10] = Subacute toxicity in Kunming mouse assessed as appearance of lesions in heart at 50 mg/kg/day, po administered for 2 weeks; type: organism-based; settings: in vivo, 336 h
[11] = Subacute toxicity in Kunming mouse assessed as clonic convulsion at 50 mg/kg/day, po administered for 2 weeks; type: organism-based; settings: in vivo, 336 h
[12] = Subacute toxicity in Kunming mouse assessed as appearance of lesions in liver at 50 mg/kg/day, po administered for 2 weeks; type: organism-based; settings: in vivo, 336 h
[13] = Tmax in ICR mouse at 10 mg/kg, po measured for 12 hrs by LC-MS/MS analysis; type: ADME, organism-based; settings: in vivo
[14] = Subacute toxicity in Kunming mouse assessed as lethargy at 50 mg/kg/day, po administered for 2 weeks; type: organism-based; settings: in vivo, 336 h
[15] = Half life in ICR mouse at 10 mg/kg, po measured for 12 hrs by LC-MS/MS analysis; type: ADME, organism-based; settings: in vivo
[16] = Subacute toxicity in Kunming mouse assessed as appearance of lesions in lungs at 50 mg/kg/day, po administered for 2 weeks; type: organism-based; settings: in vivo, 336 h
[17] = Subacute toxicity in Kunming mouse assessed as abnormalities in liver at 50 mg/kg/day, po administered for 2 weeks; type: organism-based; settings: in vivo, 336 h
[18] = Acute toxicity in Kunming mouse assessed as abnormal behaviour at 2000 mg/kg, po administered for 7 days; type: organism-based; settings: in vivo, 168 h, time 7 day
[19] = Subacute toxicity in Kunming mouse assessed as appearance of lesions in spleen at 50 mg/kg/day, po administered for 2 weeks; type: organism-based; settings: in vivo, 336 h
[20] = Aqueous solubility of compound at pH 7 at 0.1 to 10 mg; type: physicochemical; settings: aqueous medium, dose 0.1-10 mg
[21] = Tmax in ICR mouse at 2 mg/kg, iv measured for 12 hrs by LC-MS/MS analysis; type: ADME, organism-based; settings: in vivo
[22] = Subacute toxicity in Kunming mouse assessed as abnormalities in heart at 50 mg/kg/day, po administered for 2 weeks; type: organism-based; settings: in vivo, 336 h
[23] = Clearance in ICR mouse at 2 mg/kg, iv measured for 12 hrs by LC-MS/MS analysis; type: ADME, organism-based; settings: in vivo
[24] = AUC (0 to t) in ICR mouse at 2 mg/kg, iv measured for 12 hrs by LC-MS/MS analysis; type: ADME, organism-based; design: dose 2 mg/kg, time 12 hrs, route iv; settings: in vivo
[25] = AUC (0 to infinity) in ICR mouse at 2 mg/kg, iv measured for 12 hrs by LC-MS/MS analysis; type: ADME, organism-based; design: dose 2 mg/kg, time 12 hrs, route iv; settings: in vivo
[26] = Subacute toxicity in Kunming mouse assessed as abnormalities in spleen at 50 mg/kg/day, po administered for 2 weeks; type: organism-based; settings: in vivo, 336 h
[27] = Half life in ICR mouse at 2 mg/kg, iv measured for 12 hrs by LC-MS/MS analysis; type: ADME, organism-based; settings: in vivo
[28] = Metabolic stability in human liver microsomes assessed as intrinsic clearance preincubated for 10 mins followed by NADPH regenerating system addition and measured after 2 hrs by LC-MS/MS analysis; type: ADME, Microsome; settings: time 130 min, read-out: CLH
[29] = Aqueous solubility of compound at pH 7.4 at 0.1 to 10 mg; type: physicochemical; settings: aqueous medium, dose 0.1-10 mg
[30] = Subacute toxicity in Kunming mouse assessed as abnormalities in kidneys at 50 mg/kg/day, po administered for 2 weeks; type: organism-based; settings: in vivo, 336 h
[31] = Metabolic stability in human liver microsomes assessed as parent compound remaining preincubated for 10 mins followed by NADPH regenerating system addition and measured after 60 mins by LC-MS/MS analysis; type: ADME, Microsome; settings: time 70 min, read-out: Stability
[32] = Aqueous solubility of compound at pH 2 at 0.1 to 10 mg; type: physicochemical; settings: aqueous medium, dose 0.1-10 mg
[33] = Cmax in ICR mouse at 10 mg/kg, po measured for 12 hrs by LC-MS/MS analysis; type: ADME, organism-based; design: time 12 hrs, dose 10 mg/kg, route po; settings: in vivo
[34] = Subacute toxicity in Kunming mouse assessed as ruffled fur at 50 mg/kg/day, po administered for 2 weeks; type: organism-based; settings: in vivo, 336 h
[35] = AUC (0 to infinity) in ICR mouse at 10 mg/kg, po measured for 12 hrs by LC-MS/MS analysis; type: ADME, organism-based; design: time 12 hrs, dose 10 mg/kg, route po; settings: in vivo

For `Cc1cc(/C=C/C#N)cc(C)c1Oc1nc(Nc2ccc(C#N)c(F)c2)nc2c1COC2.Cl`, the Activity [1] was “Non-Toxic”, the Activity [2] was “Non-Toxic” and the half-life [3] was 11.3 min. For the same molecule, the bioavailability [4] was 12.1%, the Activity [5] was “Non-Toxic” and the Activity [6] was “Non-Toxic”. For the same molecule, the Cmax [7] was 484 ng/mL, the Activity [8] was “Non-Toxic” and the AUC(0-t) at 12 h [9] was 107 ng·h/mL. For the same molecule, the Activity [10] was “Non-Toxic”, the Activity [11] was “Non-Toxic” and the Activity [12] was “Non-Toxic”. For the same molecule, the Tmax [13] was 15 min, the Activity [14] was “Non-Toxic” and the half-life [15] was 307 min. For the same molecule, the Activity [16] was “Non-Toxic”, the Activity [17] was “Non-Toxic” and the Activity [18] was “Non-Toxic”. For the same molecule, the Activity [19] was “Non-Toxic”, the solubility [20] was 149 µg/mL and the Tmax [21] was 0 h. The Activity [22] was “Non-Toxic”, the CL [23] was 1720 mL/min/kg and the AUC(0-t) at 12 h [24] was 250 ng·h/mL. For the same molecule, the AUC [25] was 255 ng·h/mL, the Activity [26] was “Non-Toxic” and the half-life [27] was 85.8 min. The microsomal CLint [28] was 87.6 µL/min/mg, the solubility [29] was 38.9 µg/mL and the Activity [30] was “Non-Toxic”. It also gave a remaining at 1 h [31] of 5%, a solubility [32] of 349 µg/mL and a Cmax [33] of 37.5 ng/mL. For the same molecule, the Activity [34] was “Non-Toxic” and the AUC(0-inf) [35] was 154 ng·h/mL.
